ChEMBL document CHEMBL6153094, “Rationally designed highly amphipathic antimicrobial peptides demonstrating superior bacterial selectivity relative to the corresponding α-helix peptide” (Eur J Med Chem, 2025)
The source made the active and inactive calls. The calls are words filed in the database; no cut-off is given here.

Assays:
Escherichia coli = test: Antimicrobial activity against Escherichia coli ATCC 25922 assessed as inhibition of visible bacterial growth incubated for 18 hrs by broth microdilution method; format: functional
Klebsiella pneumoniae [1] = test: Antimicrobial activity against Klebsiella pneumoniae ATCC 700603 assessed as inhibition of visible bacterial growth incubated for 18 hrs by broth microdilution method; format: functional
Enterococcus faecalis = test: Antimicrobial activity against Enterococcus faecalis ATCC 29212 assessed as inhibition of visible bacterial growth incubated for 18 hrs by broth-dilution method; format: functional
Staphylococcus aureus [2] = test: Antimicrobial activity against methicillin-drug resistant Staphylococcus aureus clinical isolate 74 assessed as concentration required to eliminate 90% bacteria incubated for 18 hrs by broth-microdilution method; format: functional
Pseudomonas aeruginosa [3] = test: Antimicrobial activity against multi-drug resistant Pseudomonas aeruginosa clinical isolate 86 assessed as concentration required to eliminate 90% bacteria incubated for 18 hrs by broth-microdilution method; format: functional
[4] = Hemolytic activity in mouse red blood cells assessed as hemolysis at 256 uM incubated for 1 hrs by absorbance based assay relative to control; format: toxicity, cell-based, Erythrocyte; settings: read-out: Activity
Staphylococcus aureus [5] = test: Antibacterial activity against Staphylococcus aureus ATCC 25923 assessed as inhibition of bacterial growth at 2 times of MIC incubated for 18 hrs in presence of <2 microg/ml of trypsin by absorbance based assay; format: functional, organism-based
Staphylococcus aureus [6] = test: Antibacterial activity against Staphylococcus aureus ATCC 25923 assessed as inhibition of bacterial growth at 2 times of MIC incubated for 18 hrs in presence of <2 microg/ml of chymotrypsin by absorbance based assay; format: functional, organism-based
Staphylococcus aureus [7] = test: Bactericidal activity against Staphylococcus aureus ATCC 25923 at 2 times of MIC incubated for 18 hrs in presence of 20 microg/ml of chymotrypsin by absorbance based assay; format: functional, organism-based
Pseudomonas aeruginosa [8] = test: Antibacterial activity against Pseudomonas aeruginosa ATCC 27853 assessed as fold change in MIC incubated for 18 hrs in presence of NaCl by Mueller-Hinton broth based assay; format: functional
Staphylococcus aureus [9] = test: Antibacterial activity against Staphylococcus aureus ATCC 25923 assessed as fold change in MIC incubated for 18 hrs in presence of NaCl by Mueller-Hinton broth based assay; format: functional
Staphylococcus aureus [10] = test: Antibacterial activity against Staphylococcus aureus ATCC 25923 assessed as fold change in MIC incubated for 18 hrs in presence of 5% serum by broth microdilution method; format: functional
Staphylococcus aureus [11] = test: Antibacterial activity against Staphylococcus aureus ATCC 25923 incubated for 18 hrs in presence of 10% serum by broth microdilution method; format: functional, organism-based
Staphylococcus aureus [12] = test: Antibiofilm activity in Staphylococcus aureus ATCC 25923 assessed as inhibition of biofilm formation at 1 times of MIC incubated for 24 hrs by crystal violet staining based analysis relative to control; format: functional
Pseudomonas aeruginosa [13] = test: Resistance fold, ratio of MIC for Pseudomonas aeruginosa ATCC 27853 measured after 20 passages to MIC for Pseudomonas aeruginosa ATCC 27853 measured immediately; format: functional
Staphylococcus aureus [14] = test: Resistance fold, ratio of MIC for Staphylococcus aureus ATCC 25923 measured after 20 passages to MIC for Staphylococcus aureus ATCC 25923 measured immediately; format: functional
Staphylococcus aureus [15] = test: Resistance fold, ratio of MIC for Staphylococcus aureus ATCC 25923 measured after 20 passages in presence of gentamicin to MIC for Staphylococcus aureus ATCC 25923 measured immediately in presence of gentamicin; format: functional
Pseudomonas aeruginosa [16] = test: Antimicrobial activity against gentamicin-resistant Pseudomonas aeruginosa ATCC 27853 assessed as inhibition of visible bacterial growth incubated for 18 hrs by broth microdilution method; format: functional
Staphylococcus aureus [17] = test: Bactericidal activity against Staphylococcus aureus ATCC 25923 assessed as bacterial killing at 1 to 4 times of MIC by time-kill kinetics assay; format: functional, organism-based; settings: time <= 360.0 min
Pseudomonas aeruginosa [18] = test: Bactericidal activity against Pseudomonas aeruginosa ATCC 27853 assessed as bacterial killing measured upto 360 mins by time-kill kinetics assay; format: functional, organism-based
Pseudomonas aeruginosa [19] = test: Bactericidal activity against Pseudomonas aeruginosa ATCC 27853 assessed as bacterial eradication at 1 times of MIC measured after 60 mins by time-kill kinetics assay; format: functional, organism-based
Pseudomonas aeruginosa [20] = test: Bactericidal activity against Pseudomonas aeruginosa ATCC 27853 assessed as bacterial eradication at 4 times of MIC measured within 30 mins by time-kill kinetics assay; format: functional, organism-based
Staphylococcus aureus [21] = test: Bactericidal activity against Staphylococcus aureus ATCC 25923 assessed as bacterial eradication at 1 times of MIC measured within 90 mins by time-kill kinetics assay; format: functional, organism-based
Staphylococcus aureus [22] = test: Bactericidal activity against Staphylococcus aureus ATCC 25923 assessed as bacterial eradication at 2 times of MIC measured after 90 mins by time-kill kinetics assay; format: functional, organism-based
Cell membrane = test: Disruption of outer membrane integrity in Pseudomonas aeruginosa ATCC 27853 assessed as increase in fluorescence intensity at 4 times of MIC measured for 12 mins by NPN uptake assay; format: subcellular
DNA [23] = test: Binding affinity to Pseudomonas aeruginosa ATCC 27853 DNA at 8 times of MIC measured after 30 mins by agarose gel electrophoresis; format: nucleic-acid assay
DNA [24] = test: Binding affinity to Staphylococcus aureus ATCC 25923 DNA at 2 times of MIC measured after 30 mins by agarose gel electrophoresis; format: nucleic-acid assay
Pseudomonas aeruginosa [25] = test: Induction of morphological changes in Pseudomonas aeruginosa ATCC 27853 assessed as content leakage at 2 times of MIC incubated for 30 to 120 mins by SEM analysis; format: functional, organism-based; settings: time 30-120 min
Pseudomonas aeruginosa [26] = test: Induction of morphological changes in Pseudomonas aeruginosa ATCC 27853 assessed as blister formation at 2 times of MIC incubated for 30 to 120 mins by SEM analysis; format: functional, organism-based; settings: time 30-120 min
[27] = Toxicity in male Balb/c mouse assessed as mortality at 100.8 mg/kg, ip measured after 7 days relative to control; format: organism-based; settings: in vivo, time 7 day
[28] = Toxicity in male Balb/c mouse assessed as lethal dose administered intraperitoneally for 7 days; settings: in vivo, route ip, time 7 day
Klebsiella pneumoniae [29] = test: Antibacterial activity against Klebsiella pneumoniae ATCC 700603 infected in male Balb/c mouse model of pneumonia assessed as decrease in decrease in IL-1beta level in lung at 2.5 to 10 mg/kg, ip administered at 4 and 12 hrs post-infected and measured after 24 hrs by ELISA; format: functional, organism-based; settings: dose 2.5-10 mg/kg, time 20.0 hrs
Klebsiella pneumoniae [30] = test: Antibacterial activity against Klebsiella pneumoniae ATCC 700603 infected in male Balb/c mouse model of pneumonia assessed as increase in alveoli expansion in lung at 2.5 mg/kg, ip administered at 4 and 12 hrs post-infected and measured after 24 hrs by H and E staining based analysis; format: functional, organism-based; settings: time 20.0 hrs
Staphylococcus aureus [31] = test: Antibacterial activity against methicillin-resistant Staphylococcus aureus ATCC 33591 infected in male Balb/c mouse model of full thickness skin wound assessed as reduction in bacterial load in skin at 1 mg/ml pre-infected with bacteria for 1 hrs followed by compound administration at 1,12 and 36 hrs post infection and measured 60 hrs post infection by agar plate method; format: functional, organism-based; settings: time 59.0 hrs
Staphylococcus aureus [32] = test: Antibacterial activity against methicillin-resistant Staphylococcus aureus ATCC 33591 infected in male Balb/c mouse model of full thickness skin wound assessed as reduction in bacterial load in skin at 1 mg/ml pre-infected with bacteria for 1 hrs followed by compound administration at 1,24,48 and 72 hrs post infection and measured 60 hrs post infection by agar plate method; format: functional, organism-based; settings: time 59.0 hrs

H-RRWFRRWRRWFR-NH2
MIC (Escherichia coli): 4 µM
MIC (Klebsiella pneumoniae [1]): 4 µM
MIC (Enterococcus faecalis): 8 µM
EC90 (Staphylococcus aureus [2]): 2430 nM
EC90 (Pseudomonas aeruginosa [3]): 574 nM
hemolysis at 1 h, 256 µM [4]: < 10%
Activity (Staphylococcus aureus [5]): Active
Activity (Staphylococcus aureus [6]): Active
Activity (Staphylococcus aureus [7]): inactive
fold change (FC) (Pseudomonas aeruginosa [8]): 2
fold change (FC) (Staphylococcus aureus [9]): 2
fold change (FC) (Staphylococcus aureus [10]): 128
Activity (Staphylococcus aureus [11]): inactive
inhibition (INH) (Staphylococcus aureus [12]): ~50%
fold change (FC) (Pseudomonas aeruginosa [13]): <=2
fold change (FC) (Staphylococcus aureus [14]): <=2
fold change (FC) (Staphylococcus aureus [15]): <=2
MIC (Pseudomonas aeruginosa [16]): 2 µM
Activity (Staphylococcus aureus [17]): Time-dependent-effect
Activity (Pseudomonas aeruginosa [18]): Dose-dependent-effect
Activity (Pseudomonas aeruginosa [19]): Active
Activity (Pseudomonas aeruginosa [20]): Active
Activity (Staphylococcus aureus [21]): Active
Activity (Staphylococcus aureus [22]): Active
Activity (Cell membrane): Active
Activity (DNA [23]): Active
Activity (DNA [24]): Active
Activity (Pseudomonas aeruginosa [25]): Active
Activity (Pseudomonas aeruginosa [26]): Active
mortality at 168 h [27]: 75%
LD50 at 168 h [28]: 89.9 mg/kg
Activity (Klebsiella pneumoniae [29]): Active
Activity (Klebsiella pneumoniae [30]): Active
Activity (Staphylococcus aureus [31]): Active
Activity (Staphylococcus aureus [32]): Active
